US20060128792A1, “Deguelin as a chemopreventive agent for lung cancer” (priority 2002, published 2006)
Values joined by “and” are separate entries in the source; they are usually repeats but may differ in a detail not shown here. Equal values may be shown once. Read-outs that look alike come from different tables or passages of the source.

Legend:
[1] = system: ovarian, breast and lung cancers; conditions: cited from earlier work
[2] = system: H596; experiment: MTT assay, growth inhibition by deguelin or deguelin derivatives; format: cell-based; conditions: 3 days
[3] = system: H322; experiment: as above; format: cell-based; conditions: 3 days
[4] = system: H1299; experiment: as above; format: cell-based; conditions: 3 days
[5] = system: H460; experiment: as above; format: cell-based; conditions: 3 days
[6] = system: A549; experiment: as above; format: cell-based; conditions: 3 days
[7] = system: NSCLC cells; experiment: MTT assay, growth inhibition of NSCLC cells by deguelin and deguelin derivatives (Table 2, FIG. 7); format: cell-based; conditions: 0.01-1 μM, 3 days
[8] = system: H358; experiment: MTT assay, growth inhibition by deguelin or deguelin derivatives; format: cell-based; conditions: 3 days
[9] = system: genes controlled by the TPA response element (TRE); conditions: cited from earlier work
[10] = system: NHBE; experiment: MTT assay, growth inhibition / viability of normal HBE cells
Experimental: Cells and Cell Cultures. […] Normal HBE (NHBE) cells were purchased from Clontech (Palo Alto, Calif.). […] Cells were grown on tissue culture plasticware (Falcon; Bector, Dickinson, Bedford, Mass.) at 37° C. in a humidified atmosphere with 5% C02. For the analyses of growth inhibition, cell cycle, and induction of apoptosis by deguelin, NHBE cells, HBE cell lines, and squamous HBE cells were cultured in KSFM (Life Technologies) containing 2 μg/ml of EGF and bovine pitutary extract.
Cell Treatment with Deguelin and Determination of Growth Inhibition. To measure the effects of deguelin on cell proliferation, NHBE, 1799 cells, 1198 cells, and 1170 cells were transferred onto 96-well plates at densities ranging from 2×10^3 to 4×10^3 cells/well. After 1 day, the cells were changed to the fresh medium containing various concentrations of deguelin dissolved in DMSO (final concentration, 0.1%). Control cultures received 0.1% dimethyl sulfoxide (DMSO) as did the deguelin-treated cultures. […] After 1 day of infection, cells were treated with 10^−7 M or 10^−6 M of deguelin, or 0.1% DMSO as a control, and then incubated for 2 days. […] Six replicate wells were used for each analysis.

[11] = system: premalignant (1799, 1198) and malignant (1170) HBE cell lines; experiment: MTT assay, growth of premalignant and malignant HBE cell lines; format: cell-based; conditions: premalignant and malignant HBE cells; unpublished data
Excerpt: Cells and Cell Cultures. […] Tumors developed 6 months later. […] (Klein-Szanto et al., 1992).

CC(=O)O[C@H]1C(=O)[C@@]2(C)[C@H]([C@H](OC(=O)c3ccccc3)[C@]3(O)C[C@H](OC(=O)[C@H](O)[C@@H](NC(=O)c4ccccc4)c4ccccc4)C(C)=C1C3(C)C)[C@]1(OC(C)=O)CO[C@@H]1C[C@@H]2O [taxol, Paclitaxel]
response rate ([1]; advanced drug refractory ovarian cancer): 19-36%
response rate ([1]; previously treated metastatic breast cancer): 27-62%
response rate ([1]; various lung cancers): 21-37%

COc1cc2c(cc1OC)[C@]1(O)C(=O)c3ccc4c(c3O[C@@H]1CO2)C=CC(C)(C)O4 [tephrosin]
MTT assay reading, Average ([2]; H596, 0.01 μM): 0.1156
MTT assay reading, individual replicate ([2]; H596, 0.01 μM): 0.062 and 0.127 and 0.078 and 0.138 (2×) and 0.103 and 0.163
MTT assay reading, Average ([2]; H596, 0.1 μM): 0.0826
MTT assay reading, individual replicate ([2]; H596, 0.1 μM): 0.082 and 0.062 and 0.066 and 0.095 and 0.09 and 0.058 and 0.125
MTT assay reading, Average ([2]; H596, 0.5 μM): 0.1631
MTT assay reading, individual replicate ([2]; H596, 0.5 μM): 0.137 and 0.159 and 0.151 and 0.111 and 0.158 and 0.076 and 0.35
MTT assay reading, Average ([2]; H596, 1 μM): 0.1983
MTT assay reading, individual replicate ([2]; H596, 1 μM): 0.287 and 0.257 and 0.172 and 0.151 and 0.215 and 0.131 and 0.175
MTT assay reading, Average ([3]; H322, 0.01 μM): 0.6627
MTT assay reading, individual replicate ([3]; H322, 0.01 μM): 0.527 and 0.596 and 0.713 and 0.655 and 0.68 and 0.721 and 0.747
MTT assay reading, Average ([3]; H322, 0.1 μM): 0.7197
MTT assay reading, individual replicate ([3]; H322, 0.1 μM): 0.685 and 0.659 and 0.726 and 0.643 and 0.732 and 0.795 and 0.798
MTT assay reading, Average ([3]; H322, 0.5 μM): 0.1343
MTT assay reading, individual replicate ([3]; H322, 0.5 μM): 0.113 and 0.109 (2×) and 0.12 and 0.117 and 0.162 and 0.21
MTT assay reading, Average ([3]; H322, 1 μM): 0.2089
MTT assay reading, individual replicate ([3]; H322, 1 μM): 0.223 and 0.216 (3×) and 0.182 and 0.168 and 0.241
MTT assay reading, Average ([4]; H1299, 0.01 μM): 0.4143
MTT assay reading, individual replicate ([4]; H1299, 0.01 μM): 0.38 and 0.248 and 0.428 and 0.399 and 0.471 and 0.527 and 0.447
MTT assay reading, Average ([4]; H1299, 0.1 μM): 0.7746
MTT assay reading, individual replicate ([4]; H1299, 0.1 μM): 0.795 and 0.806 and 0.783 and 0.784 and 0.956 and 0.491 and 0.807
MTT assay reading, Average ([4]; H1299, 0.5 μM): 0.1507
MTT assay reading, individual replicate ([4]; H1299, 0.5 μM): 0.135 and 0.147 and 0.166 and 0.204 and 0.179 and 0.097 and 0.127
MTT assay reading, Average ([4]; H1299, 1 μM): 0.2739
MTT assay reading, individual replicate ([4]; H1299, 1 μM): 0.261 and 0.279 and 0.255 and 0.26 and 0.36 and 0.183 and 0.319
% control ([5]; H460, 0.01 μM): 0.05%
MTT assay reading, Average ([5]; H460, 0.01 μM): 0.0956
MTT assay reading, individual replicate ([5]; H460, 0.01 μM): 0.072 and 0.051 and 0.097 and 0.1 and 0.105 and 0.132 and 0.112
% control ([5]; H460, 0.1 μM): 0.05%
MTT assay reading, Average ([5]; H460, 0.1 μM): 0.0816
MTT assay reading, individual replicate ([5]; H460, 0.1 μM): 0.072 and 0.067 and 0.086 (2×) and 0.112 and 0.056 and 0.092
% control ([5]; H460, 0.5 μM): 0.08%
MTT assay reading, Average ([5]; H460, 0.5 μM): 0.141
MTT assay reading, individual replicate ([5]; H460, 0.5 μM): 0.088 and 0.113 (2×) and 0.159 and 0.16 and 0.19 and 0.164
% control ([5]; H460, 1 μM): 0.10%
MTT assay reading, Average ([5]; H460, 1 μM): 0.1819
MTT assay reading, individual replicate ([5]; H460, 1 μM): 0.162 and 0.184 and 0.154 and 0.272 and 0.183 and 0.133 and 0.185
% control ([6]; A549, 0.01 μM): 0.16%
MTT assay reading, Average ([6]; A549, 0.01 μM): 0.2403
MTT assay reading, individual replicate ([6]; A549, 0.01 μM): 0.274 and 0.196 and 0.223 and 0.284 and 0.229 and 0.252 and 0.224
% control ([6]; A549, 0.1 μM): 0.17%
MTT assay reading, Average ([6]; A549, 0.1 μM): 0.248
MTT assay reading, individual replicate ([6]; A549, 0.1 μM): 0.161 and 0.279 and 0.299 and 0.218 and 0.262 and 0.236 and 0.281
% control ([6]; A549, 0.5 μM): 0.17%
MTT assay reading, Average ([6]; A549, 0.5 μM): 0.255
MTT assay reading, individual replicate ([6]; A549, 0.5 μM): 0.299 and 0.243 and 0.26 and 0.217 (2×) and 0.305 and 0.244
% control ([6]; A549, 1 μM): 0.23%
MTT assay reading, Average ([6]; A549, 1 μM): 0.3313
MTT assay reading, individual replicate ([6]; A549, 1 μM): 0.434 and 0.15 and 0.366 and 0.295 and 0.386 and 0.341 and 0.347
inhibiting cell growth in NSCLC cells, ranking among the derivatives [7]: most effective
MTT assay reading, Average ([8]; H358, 0.01 μM): 0.6206
MTT assay reading, individual replicate ([8]; H358, 0.01 μM): 0.508 and 0.601 and 0.658 and 0.674 and 0.608 and 0.59 and 0.705
MTT assay reading, Average ([8]; H358, 0.1 μM): 0.5327
MTT assay reading, individual replicate ([8]; H358, 0.1 μM): 0.522 and 0.496 (2×) and 0.558 and 0.516 and 0.579 and 0.562
MTT assay reading, Average ([8]; H358, 0.5 μM): 0.1047
MTT assay reading, individual replicate ([8]; H358, 0.5 μM): 0.054 and 0.048 and 0.1 and 0.105 and 0.117 and 0.147 and 0.162
MTT assay reading, Average ([8]; H358, 1 μM): 0.2634
MTT assay reading, individual replicate ([8]; H358, 1 μM): 0.245 and 0.233 and 0.332 and 0.139 and 0.234 and 0.293 and 0.368

N#CC(=C(N)Sc1ccccc1N)C(C#N)=C(N)Sc1ccccc1N [U0126, 1,4diamino-2,3-dicyano-1,4 bis[2-aminophenylthio]butadiene]
concentration inhibiting PMA-induction of TRE-controlled genes [9]: 1 to 2 µM

O=c1cc(N2CCOCC2)oc2c(-c3ccccc3)cccc12 [LY294002, reference compound]
cytotoxicity on NHBE cells [10]: significant cytotoxicity
concentration required to induce detectable cell growth inhibition [11]: more than 10 μM
